Results on one compound are retold here after patent US20250360113A1, “ADMINISTRATION OF DHB TO INCREASE BENEFIT OF LOSING WEIGHT OF INTERMITTENT FASTING” (NANJING NUTRABUILDING BIO-TECH CO., LTD., priority 2023, published 2025).

A short description of data set [1]: Normal-diet mice given DHB with or without EODF, tested by the same method. The settings on record: normal mice on normal diet. In kind it is in vivo, C57BL/6 male mice. The method, then:
40 C57BL/6 male mice aged about 8 weeks, are randomly assigned to four study groups (GA1, GA2, GA3, GA4) of ten mice each (one cage, […]). Mice were maintained in a pathogen free condition under a strict 12 h light/dark cycle (0600/1800 h) with 12-15 cycles/hour of air change. Mice were provided with access to respective feed and water ad libitum as per experimental conditions. Mice were housed under controlled laboratory conditions of temperature and humidity at 23±2° C. and 50±10% RH, respectively. Each study group consisted of ten animals, and treatment details of the individual study groups are given below: • Group A1 (GA1, NC): Normal mice, maintained on normal diet (standard chow, 12% calories from fat; 23% calories from protein and 65% calories from carbohydrates) for 8 weeks, receiving neither EODF nor DHB treatment. • Group A2 (GA2): Normal mice, maintained on normal diet for 8 weeks, receiving only EODF and no DHB treatment. • Group A3 (GA3): Normal mice, maintained on normal diet for 8 weeks, receiving only DHB treatment and no EODF. • Group A4(GA4): Normal mice, maintained on normal diet for 8 weeks, receiving DHB treatment and EODF combination. Test according to the above method. […] This effect persists for as long as the test protocol is continued.

For data set [2] the following is noted: mice, including mice lacking the intestinal bacteria needed to break down BBR; cited from earlier work.
Data set [3] can be described thus: Body weight and body composition of HFD obese mice given DHB with or without EODF. In kind it is in vivo, C57BL/6 male mice. The method, then:
50 C57BL/6 male mice aged about 8 weeks, are randomly assigned to five study groups (GA, GB1, GB2, GB3, GB4) of ten mice each (one cage, n=5 per condition). Mice were maintained in a pathogen free condition under a strict 12 h light/dark cycle (0600/1800 h) with 12-15 cycles/hour of air change. Mice were provided with access to respective feed and water ad libitum as per experimental conditions. Mice were housed under controlled laboratory conditions of temperature and humidity at 23±2° C. and 50±10% RH, respectively.
Each study group consisted of ten animals, and treatment details of the individual study groups are given below: • Group A (GA, NC): Normal mice, maintained on normal diet (standard chow, 12% calories from fat; 23% calories from protein and 65% calories from carbohydrates) for 8 weeks, receiving neither EODF nor DHB treatment. • Group B1 (GB1): Obese mice, maintained on high fat diet (HFD, 60% calories from fat, 20% calories from protein, 20% calories from carbohydrate) for 8 weeks, receiving neither EODF nor DHB treatment. • Group B2 (GB2): Obese mice, maintained on HFD for 8 weeks, receiving only EODF and no DHB treatment. • Group B3 (GB3): Obese mice, maintained on HFD for 8 weeks, receiving only DHB treatment and no EODF. • Group B4 (GB4): Obese mice, maintained on HFD for 8 weeks, receiving DHB treatment and EODF combination.
The total experimental time is 19 weeks, including two periods: an elevent-week induction period and a subsequent eight-week treatment period.
HFD fed male mice in groups at 8 weeks of age were randomly assigned into either ad libitum, or EODF groups on a per cage basis. All cage bedding was changed to paper bedding for the duration of the model. Mice in the EODF group had total deprivation of food and ad libitum access to water from 1200 h-1200 h on alternate days with ad libitum food and water access. EODF cages were changed upon induction of fasting. Ad libitum control mice cages were changed every other day with fresh food provided.
DHB was administered daily via intragastric injection (i.g.) according to a level of 70 mg/kg body weight. Mice not receiving DHB were given orally with ultrapure water.
Each mouse's body weight is measured weekly during the study at 1200 h. Each animal's body composition was measured and recorded before the treatment and weekly during the study at 1200 h by Nuclear Magnetic Resonance Body Composition Analyzer in accordance with manufacturer's instruction. After sacrifice, subcutaneous fat and para-renal fat were weighed.

Data set [4] in a line: Oral glucose tolerance test (OGTT). The settings on record: HFD obese mice. In kind it is in vivo, C57BL/6 male mice. The method, then:
50 C57BL/6 male mice aged about 8 weeks, are randomly assigned to five study groups (GA, GB1, GB2, GB3, GB4) of ten mice each (one cage, n=5 per condition). Mice were maintained in a pathogen free condition under a strict 12 h light/dark cycle (0600/1800 h) with 12-15 cycles/hour of air change. Mice were provided with access to respective feed and water ad libitum as per experimental conditions. Mice were housed under controlled laboratory conditions of temperature and humidity at 23±2° C. and 50±10% RH, respectively. Each study group consisted of ten animals, and treatment details of the individual study groups are given below: • Group A (GA, NC): Normal mice, maintained on normal diet (standard chow, 12% calories from fat; 23% calories from protein and 65% calories from carbohydrates) for 8 weeks, receiving neither EODF nor DHB treatment. • Group B1 (GB1): Obese mice, maintained on high fat diet (HFD, 60% calories from fat, 20% calories from protein, 20% calories from carbohydrate) for 8 weeks, receiving neither EODF nor DHB treatment. • Group B2 (GB2): Obese mice, maintained on HFD for 8 weeks, receiving only EODF and no DHB treatment. • Group B3 (GB3): Obese mice, maintained on HFD for 8 weeks, receiving only DHB treatment and no EODF. • Group B4 (GB4): Obese mice, maintained on HFD for 8 weeks, receiving DHB treatment and EODF combination. DHB was administered daily via intragastric injection (i.g.) according to a level of 70 mg/kg body weight. Mice not receiving DHB were given orally with ultrapure water. Oral glucose tolerance test (OGTT): To measure glucose levels in blood, GTT were implemented in the mice (NC and HFD groups) after overnight by using a glucose analyzer. The glucose concentrations were measured in blood collected by venous bleeding from the tail vein immediately at 0, 15, 30, 60 and 120 min after administered glucose at 2 g/kg orally. Towards the end of the final week of the study, GTT was also performed for all mice (NC and HFD groups).

Setting [5] is: DHB + EODF combination vs EODF only.
[6] abbreviates: DHB 70 mg/kg i.g. daily + EODF combination vs EODF only.

Entries after “also recorded” stand apart in the source; their conditions may differ.

Turning to `COc1ccc2c(c1OC)CN1CCc3cc4c(cc3C1=C2)OCO4` [DHB, Dihydroberberine], the “effects (same tests as in obese mice)” value in data set [1] (setting [5]) is “greater effects”. Besides, in data set [1] (DHB vs no DHB with and without EODF), the “effectiveness (same tests as in obese mice)” value is recorded as “greater effectiveness”. Further, the “absorption compared with BBR” value in data set [2] was “better absorbed”. Also, in data set [3] (setting [6]), the body fat result is listed as “reducing”, the body weight result was “reducing; also recorded: greater effects on weight loss”, the para-renal fat result is recorded as “reducing” and the subcutaneous fat entry is “reducing”. Also, the body composition result in data set [3] (DHB 70 mg/kg i.g. daily, 8 weeks, with or without EODF, vs same HFD with and without EODF, no DHB, FIGS. 1-4) is listed as “greater reduction in body composition”. In addition, in data set [4] (DHB 70 mg/kg i.g. daily vs no DHB with and without EODF, FIGS. 11-14), the blood glucose levels result is “greater reduction”. In data set [4] (setting [5]), the “improving the glucose tolerance” value was “greater effects” and the “reducing the blood glucose levels” value is reported as “greater effects”. Further, the glucose tolerance result in data set [4] (glucose 2 g/kg orally, DHB vs no DHB with and without EODF) was “better”.
